This is an account of results in patent US7846963B2, “2-oxo-heterocyclic compounds and the pharmaceutical compositions comprising the same” (Korea Research Institute of Bioscience and Biotechnology, priority 2003, dated 2010).

The test system of test [1] is production of nitric oxide (NO) in RAW 264.7 cells. Briefly: Inhibition of NO (nitrite) production in LPS-activated RAW 264.7 macrophages, Griess reagent. Conditions: Table 22, cited in b622 as nitrite/NO production result, LPS 0.3 μg/ml, 24 hours, compounds up to 10 μM, IC50 unit not given. Format: cell-based, mouse. On the procedure: To test the inhibiting activity of the compounds prepared from above Examples 1 to 6 on the production of nitric oxide (NO) caused by activated macrophage by lipopolysaccharide (LPS), the amount of accumulated […] in the cells was determined as an indicator of NO production in the medium.
(§1) Each 200 μl of RAW 264.7 cells (ATCC, USA), a mouse macrophage cell line was seeded onto each well of 96-well microtiter plate (Nunc, Sweden) to the concentration ranging from 1×10^6 cells/ml to 5×10^6 cells/ml, and incubated in DMEM (Dulbeco's modified eagles medium) media containing 5% FBS (fetal bovine serum) at 37° C. in 5% CO2 incubator.
Various concentrations of the compounds of the present invention ranging from […] to 10 μM and LPS (Sigma, USA) in the final concentration of 0.3 μg/ml to activate the cell were treated to activate the cell simultaneously. The treated cells were cultured at 37° C. for 24 hours in 5% CO2 incubator and the cultured cells were collected after the cultivation.
And then, to the collected cell culture, an equal volume of Griess reagent (1% sulfanilamide, 0.1% naphthylethylenediamine dihydrochloride, and 2% phosphoric acid) was added and the culture was incubated at room temperature for 10 mins. The amount of nitrite production was determined by measuring the absorbance at 540 nm versus a NaNO2 standard curve. […]
(Nitrite, measured by Griess reagent, commonly stands in for NO production.)

Test [2] has as its system production of TNF-alpha in RAW 264.7 cells. Briefly: Inhibition of TNF-alpha production in LPS-treated RAW 264.7 cells, ELISA of culture supernatant. Format: cell-based, mouse. Also noted: TNF-alpha inhibition: scale not given here. Conditions: Table 23, LPS 0.3 μg/ml, 24 hours, compounds up to 10 μM, IC50 unit not given. On the procedure:
To test the inhibiting activity of the compounds prepared from above Examples on the production of TNF-alpha, the concentration of TNF-alpha in the cell supernatant was measured.
as §1
Various concentrations of the compounds of the present invention ranging from […] to 10 μM and LPS (Sigma, USA) in the final concentration of 0.3 μg/ml were treated to activated cell simultaneously. The treated cells were cultured at 37° C. for 24 hours in 5% CO2 incubator and the cultured cells were collected after the cultivation
And then the concentration of TNF-alpha secreted from the culture supernatant of RAW 264.7 cells was determined by ELISA according to the manufacture's instruction (R&D Systems, Minneapolis, Minn.).
The result was shown in Table 23 (AA: IC50's<1, A: IC50's<5, B: IC50's<10, C: IC50's>10).

As for `O=C(CCC1=CCN(CCCc2ccc3ccccc3c2)C1=O)NO` [Example 56, N-hydroxy-3-[1-(3-naphthalene-2-yl-propyl)-2-oxo-2,5-dihydro-1H-pyrrol-3-yl]-propionamide], the NO production inhibition entry in test [1] was “AAA”. Further, the TNF-alpha inhibition entry in test [2] is “AAA”.
Take `Cc1ccc(CCN2CC=C(CCC(=O)NO)C2=O)cc1` [Example 39, N-hydroxy-3-[2-oxo-1-(2-p-tolyl-ethyl)-2,5-dihydro-1H-pyrrol-3-yl]-propionamide]: the NO production inhibition result in test [1] is given as “AAA”. The TNF-alpha inhibition result in test [2] was “AAA”.
